{"source": "patent US6096725A", "about": "“Methods of using αGal oligosaccharides as immune system targeting agents” (Neose Technologies, Inc., priority 1997, dated 2000)", "key": {"[1]": {"set-up": "species or system baboon", "conditions": "in vivo", "method": "(§1) The two xenotransplant baboons were outfitted with an indwelling catheter to the femoral vein to infuse compound and a catheter to the femoral artery for blood sampling. Following the transplant procedure, but just prior to providing circulatory access to the xenograft, the oligosaccharide was administered by i.v. pump through the catheter in a 15 min loading dose, followed by continuous 4 hour infusion to achieve 2.5 mM blood concentration (as determined by calculations presented in Table 2). […] Blood specimens collected for plasma were immediately centrifuged and the plasma withdrawn and stored frozen at -20° C. Blood specimens collected for serum were clotted at 4° C. overnight and the withdrawn serum frozen at -20° C. The αGal pentasaccharide was prepared according to the enzymatic methods set forth in example 6.2 and stored as a dry, white, solid powder. The oligosaccharide was dissolved in 250 mL sterile infusion grade saline to a concentration of 0.154 g/mL, or 177 mM. Induction anesthesia was with ketamine hydrochloride 5 mg/kg/body weight in and 0.5 mg/kg of xylazine iv. Intravenous fluid of approximately 20 ml/kg body weight was given during the course of the operative procedure through either a peripheral or central vein. Atropine 0.5 mg/kg was given iv. […] Arterial pressure was monitored in the recipient baboon by intermittent automatic cuff recordings."}, "[2]": {"assay": "Human dose and half-life estimates extrapolated from baboon pharmacokinetics", "conditions": "human patient of 70 Kg", "method": "^1 To achieve a steady state serum concentration for monovalent αGal pentasaccharide of 1 mM (i.e., 0.9 mg/mL) in a human patient of 70 Kg, it is estimated that a loading dose of 412 mg/Kg be administered in the form of a bolus or 15 minute infusion, followed by a continuous infusion of 30 g/h over a 14 day period (see Table 2 for further αGal trisaccharide and αGal pentasaccharide 2 infusion regimens).\nThe clearance is used to calculate the infusion rate needed to maintain a desired drug concentration. The half-life describes how quickly concentrations diminish with time. Mathematical formulations known in the art were applied to estimate the pharmacokinetic parameters of the αGal trisaccharide and αGal pentasaccharide. […] Compared to other drugs, the volumes of distribution of these oligosaccharides are low, less than the extravascular water volume (<400 mL/kg). The clearance is typical of compounds eliminated by GFR (glomerular filtration rate)."}, "[3]": {"system": "mouse endothelial cell line, MAE", "assay_type": "cell-based", "conditions": "240 min"}, "anti-αGal antibody": {"system": "anti-αGal antibody", "assay": "ELISA of reactive anti-αGal antibody in sera of xenotransplanted baboons", "assay_type": "binding, baboon", "conditions": "period during which serum concentration exceeded 1 mM; data not shown", "method": "as §1, with “recordings. […]” for “recordings.”"}, "[4]": {"system": "pig kidney endothelial cell line, PK-15", "assay_type": "cell-based", "conditions": "240 min", "method": "Sera were incubated with serial dilutions of αGal oligosaccharides at 37° C. for 1 hour, then added to αGal-expressing monolayers (pig kidney cells, PK-15) in Terasaki plates for 1 hour at 37° C. Cytotoxicity was mediated by either endogenous complement, or the sera were de-complemented (heat inactivated for 30 minutes at 56° C.) and exogenous (rabbit) complement was added. After washing away excess serum, the viable dye mix \"live-dead\" (calcein AM/ethidium homodimer (Molecular Probes Inc., Eugene Oreg.)) was added and monolayers were scored for viability by fluorescence microscopy.\nThe two xenotransplant baboons were outfitted with an indwelling catheter to the femoral vein to infuse compound and a catheter to the femoral artery for blood sampling. Following the transplant procedure, but just prior to providing circulatory access to the xenograft, the oligosaccharide was administered by i.v. pump through the catheter in a 15 min loading dose, followed by continuous 4 hour infusion to achieve 2.5 mM blood concentration (as determined by calculations presented in Table 2). […] Blood specimens collected for plasma were immediately centrifuged and the plasma withdrawn and stored frozen at -20° C. […] Arterial pressure was monitored in the recipient baboon by intermittent automatic cuff recordings."}}, "data": [{"smiles": "CC(=O)N[C@H]1[C@H](O[C@H]2[C@@H](O)[C@@H](CO)O[C@@H](O[C@H]3[C@H](O)[C@@H](O)C(O)O[C@@H]3CO)[C@@H]2O)O[C@H](CO)[C@@H](O[C@@H]2O[C@H](CO)[C@H](O)[C@H](O[C@H]3O[C@H](CO)[C@H](O)[C@H](O)[C@H]3O)[C@H]2O)[C@@H]1O", "note": "(stereo partly drawn) [αGal pentasaccharide, Galα1-3Galβ1-4GlcNAcβ1-3Galβ1-4Glc]", "values": [{"measurement": "Blood concentration relative to prediction from earlier pharmacokinetic infusions", "setting": "[1]", "result": "approximately twice what was predicted"}, {"measurement": "Estimated continuous infusion", "setting": "[2]; 1 mM steady state, over a 14 day period", "result": 30, "unit": "g/h"}, {"measurement": "Estimated loading dose (bolus or 15 minute infusion)", "setting": "[2]; steady state serum concentration 1 mM (0.9 mg/mL)", "result": 412, "unit": "mg/kg"}, {"measurement": "Reduction of cytotoxicity of baboon sera against MAE cells", "setting": "[3]", "result": 100, "unit": "%"}, {"measurement": "Reactive anti-αGal antibody titer by ELISA (mouse laminin, α-Gal-albumin neoglycoconjugates, PK-15 cells)", "setting": "anti-αGal antibody", "result": "pronounced reduction in the anti-αGal antibody titer"}, {"measurement": "Reduction of cytotoxicity of baboon sera against PK-15", "setting": "[4]", "result": "85-95%"}]}]}
